Earlier results in patent US20230037437A1, “FORMULATIONS FOR USE IN THE TREATMENT OF DIFFERENT TYPES OF ADDICTIONS AND DEPENDENCE ON ADDICTIVE SUBSTANCES” (UNIBIOLABS INTERNACIONAL S.A DE C.V, priority 2019, published 2023).

Assays:
[1] = biological target: dopamine transporter (DAT) (Homo sapiens, UniProt Q01959); conditions: relative to cocaine
IKr channel (hERG) = IKr channel (hERG) (Homo sapiens, UniProt Q12809)
serotonin transporter = serotonin transporter (Homo sapiens, UniProt P31645)
cocaine abusers = conditions: patients taking magnesium versus placebo

Sequence of IKr channel (hERG) (Q12809 whole entry): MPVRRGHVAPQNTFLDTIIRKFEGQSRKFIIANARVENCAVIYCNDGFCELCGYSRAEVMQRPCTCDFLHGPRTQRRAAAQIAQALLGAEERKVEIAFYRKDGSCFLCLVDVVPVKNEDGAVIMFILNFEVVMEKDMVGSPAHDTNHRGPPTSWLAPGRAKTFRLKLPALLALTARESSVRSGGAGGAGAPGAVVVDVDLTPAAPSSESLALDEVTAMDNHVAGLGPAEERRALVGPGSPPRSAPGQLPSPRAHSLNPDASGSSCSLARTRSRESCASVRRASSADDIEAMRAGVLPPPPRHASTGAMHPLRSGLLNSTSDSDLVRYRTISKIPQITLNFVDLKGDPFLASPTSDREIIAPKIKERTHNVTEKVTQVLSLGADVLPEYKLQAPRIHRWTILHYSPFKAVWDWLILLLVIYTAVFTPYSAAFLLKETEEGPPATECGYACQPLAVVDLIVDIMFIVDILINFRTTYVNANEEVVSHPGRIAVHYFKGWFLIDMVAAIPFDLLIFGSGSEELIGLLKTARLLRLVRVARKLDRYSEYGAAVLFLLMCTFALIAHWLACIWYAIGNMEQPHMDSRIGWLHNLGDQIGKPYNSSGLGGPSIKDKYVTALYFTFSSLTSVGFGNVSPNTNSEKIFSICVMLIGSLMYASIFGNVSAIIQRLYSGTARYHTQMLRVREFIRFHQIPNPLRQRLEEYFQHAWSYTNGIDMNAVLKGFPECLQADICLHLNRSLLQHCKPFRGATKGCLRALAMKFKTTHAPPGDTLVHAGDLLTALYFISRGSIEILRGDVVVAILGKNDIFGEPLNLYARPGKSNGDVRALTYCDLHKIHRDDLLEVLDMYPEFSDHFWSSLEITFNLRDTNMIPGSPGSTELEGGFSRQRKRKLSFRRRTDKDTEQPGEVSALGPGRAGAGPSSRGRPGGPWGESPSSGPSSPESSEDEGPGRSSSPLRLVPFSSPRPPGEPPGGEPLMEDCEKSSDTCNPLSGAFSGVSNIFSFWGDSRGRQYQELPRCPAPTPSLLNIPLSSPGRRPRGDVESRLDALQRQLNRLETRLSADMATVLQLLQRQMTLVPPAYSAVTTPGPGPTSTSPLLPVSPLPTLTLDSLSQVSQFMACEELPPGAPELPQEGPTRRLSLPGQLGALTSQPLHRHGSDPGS
Sequence of serotonin transporter (P31645 whole entry): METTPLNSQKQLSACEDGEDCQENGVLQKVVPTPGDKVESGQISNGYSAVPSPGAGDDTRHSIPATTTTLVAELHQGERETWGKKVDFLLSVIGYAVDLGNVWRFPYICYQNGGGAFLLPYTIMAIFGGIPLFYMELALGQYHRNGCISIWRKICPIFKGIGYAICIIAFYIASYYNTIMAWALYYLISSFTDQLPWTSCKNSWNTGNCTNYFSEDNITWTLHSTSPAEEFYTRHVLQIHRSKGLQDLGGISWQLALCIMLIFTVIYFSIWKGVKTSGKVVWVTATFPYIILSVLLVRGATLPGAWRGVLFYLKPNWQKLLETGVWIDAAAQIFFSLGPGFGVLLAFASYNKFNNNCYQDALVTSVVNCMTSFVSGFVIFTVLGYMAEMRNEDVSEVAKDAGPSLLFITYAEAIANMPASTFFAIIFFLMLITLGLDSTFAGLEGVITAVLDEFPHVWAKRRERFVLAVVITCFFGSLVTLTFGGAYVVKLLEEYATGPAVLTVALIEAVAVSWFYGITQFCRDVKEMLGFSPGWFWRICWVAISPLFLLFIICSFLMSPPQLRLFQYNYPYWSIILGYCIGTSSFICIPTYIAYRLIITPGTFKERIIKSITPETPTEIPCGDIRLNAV
Sequence of dopamine transporter (DAT) (Q01959 whole entry, species assumed): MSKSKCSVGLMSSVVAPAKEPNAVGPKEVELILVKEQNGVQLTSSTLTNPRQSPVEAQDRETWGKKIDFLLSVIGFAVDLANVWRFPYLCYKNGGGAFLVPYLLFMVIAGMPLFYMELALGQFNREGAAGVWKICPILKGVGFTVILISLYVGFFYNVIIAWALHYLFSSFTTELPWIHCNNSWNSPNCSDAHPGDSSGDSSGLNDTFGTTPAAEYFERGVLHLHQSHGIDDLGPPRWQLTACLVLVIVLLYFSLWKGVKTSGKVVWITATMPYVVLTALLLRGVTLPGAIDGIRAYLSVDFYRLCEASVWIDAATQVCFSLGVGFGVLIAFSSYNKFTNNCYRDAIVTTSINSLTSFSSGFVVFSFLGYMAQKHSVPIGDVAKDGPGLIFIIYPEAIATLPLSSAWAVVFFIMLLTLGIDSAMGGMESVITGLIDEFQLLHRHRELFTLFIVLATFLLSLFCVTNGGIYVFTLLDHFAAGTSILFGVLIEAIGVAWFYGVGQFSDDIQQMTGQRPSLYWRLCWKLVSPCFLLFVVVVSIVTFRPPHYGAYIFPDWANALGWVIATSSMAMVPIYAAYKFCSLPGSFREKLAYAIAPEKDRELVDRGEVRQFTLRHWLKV

Row | Compound | binding to the target site on the dopamine transporter (DAT), stronger than cocaine [1] | IKr channel (hERG) block (IKr channel (hERG)) | affinity to the serotonin transporter (serotonin transporter) | cocaine craving scores, lower than in patients taking placebo (cocaine abusers) [%]
1 | Fc1ccc(C(OCCN2CCN(CCCc3ccccc3)CC2)c2ccc(F)cc2)cc1 [GBR 12909, Vanoxerine] | approximately 50 times | potent IKr channel blocker | nanomolar affinity | –
2 | [Mg+2] [magnesium] | – | – | – | 78
